From patent US10682388B2, “Targeting of PELP1 in cancer therapy” (THE BOARD OF REGENTS OF THE UNIVERSITY OF TEXAS SYSTEM, priority 2014, dated 2020)

Experiments:
ZRPELP1 cells = assay: Initial screen, proliferation assay of PELP1-overexpressing breast cancer cells; type: cell-based, Human; settings: FIG. 1B
Experimental: FIGS. 1A-D. (FIG. 1A) Diagram for yeast two hybrid screen to identify PELP1 binding peptides. Four regions of PELP1 were tagged with the binding domain and a library of 10^6 random peptides (Clontech) were bound to an activation domain. The number of positive colonies per region of PELP1 are shown in the graph. (FIG. 1B) A proliferation assay was performed with […]1 cells plated in a 96 well plate, treated with peptide every 3 days and absorbance was measured at 7 days. (FIG. 1C) ZR75 were plated in a 6-well plate on coverslips in 8% RPMI and treated with 10 uM FITC labeled peptide for 30, 60, or 120 minutes. They were then fixed with pararformaldehyde, stained for PELP1 (red) and DAPI (blue), and imaged by confocal microscopy to monitor intracellular delivery. (FIG. 1D) ZR75 cells were starved of estrogen for 72 hours and treated with estradiol 10^-7 M for 12 hours. Nuclear lysate was incubated with biotin-tagged peptides bound to avidin beads for one hour. Beads were washed, run on SDS-PAGE gel and probed for PELP1 expression. Input of nuclear lysate is shown as control. Cell proliferation rates were measured by using MTT Cell Viability Assay in 96-well plates. Model cells were seeded in 96-well plates (1×10^3 cells/well) in DMEM or RPMI medium containing 10% serum. After an overnight incubation, cells were treated with varying concentrations of the peptides for 3-7 days and growth inhibition was determined by using traditional MTT assay (Sigma) following manufacturer's instructions.

[1] = test system: G9a target genes Pecam1, Serac1, Rb1 and Bmi1 in ZR75 cells; assay: qRTPCR of G9a target genes; type: cell-based, Human; settings: 10 μM, FIG. 3B
Experimental: FIGS. 3A-F. (FIG. 3A) Recombinant histones were incubated with G9a with increasing concentrations of PELP1, incubated 1 hour at 30° C. and western blot analysis was performed for expression of H3K9me2. Total histone H3 is shown as the control. (FIG. 3B) qRTPCR analysis of ZR75 and ZRPELP1KD cells treated with 10 μM TAT or PIP1 for 24 hours. G9a target genes PECAM1, SERAC1, RB1 and BMI1 expression is shown as—fold change over actin. (FIG. […]) ChIP-sequencing location analysis of H3K9me2 in control ZR75 model cells. (FIG. 3D) ChIP-sequencing location analysis of H3K9me2 in stable ZR75PELP1KD cells. (FIG. 3E) Ingenuity pathway analysis of genes from binding peaks of ChIP-sequencing of H3K9me2 in stable PELP1 ZR75PELP1KD cells. (FIG. 3F) Image from Integrated Genome Viewer of ChIP-sequencing of H3K9me2 in ZR75 and ZRPELP1KD cells.
Model cells ZR75 and ZRPELP1KD were grown in 8% DCC media for 72 hours and treated with TAT or PIP1 (10 μM) for […]. RNA was isolated by Trizol and cDNA was synthesized by Superscript III First Strand reverse transcriptase (Invitrogen). qPCR was performed in triplicate by SyberGreen using an Illumina Eco Real-Time PCR System. Gene expression was normalized to actin.

[2] = test system: ZR75, ZR75PELP1, MCF7 and MCF7PELP1 cells; assay: MTT proliferation assay, breast cancer cells with and without PELP1 overexpression; type: cell-based, Human; settings: 10 μM every 3 days, day 7, FIG. 4A
Experimental: FIGS. 4A-E. (FIG. 4A) ZR75vec, ZR75PELP1, MCF7vec and MCF7PELP1 cells were treated in triplicate with TAT, PIP1 or PIP1 deletions (Del1, Del2, Del3) at 10 uM every 3 days and proliferation was measured by MTT assay on day 7. (FIG. 4B) ZRPELP1 cells were transfected with ERE-luciferase and treated with TAT, PIP1, or PIP2 for 24 hours and with estradiol for 12 hours. Relative luciferase activity was measured in triplicate. (FIG. 4C) ZR75 cells were grown in 5% DCC media for 72 hours, treated with TAT or PIP1 every 3 days, and treated with estradiol 10^−7 M for 12 hours. Proliferation was measured in triplicate on day 7 by MTT assay at 595 nm. (FIG. 4D) MCF7-Letrozole resistant cells were grown in 5% DCC media for 72 hours, treated with TAT, PIP1 or PIP2 every 3 days, and letrozole or estradiol 10^−7 M for 12 hours. Proliferation was measured in triplicate on day 7 by MTT assay at 595 nm. […] Proliferation was measured in triplicate on day 7 by MTT assay at 595 nm.
Cell proliferation rates were measured by using MTT Cell Viability Assay in 96-well plates. […] After an overnight incubation, cells were treated with varying concentrations of the peptides for 3-7 days and growth inhibition was determined by using traditional MTT assay (Sigma) following manufacturer's instructions.

[3] = test system: T98G, LN229 and U251 glioma cells and patient-derived primary GBM cells; assay: MTT proliferation assay, glioma cell lines and primary GBM cells; type: cell-based; settings: FIGS. 15A-D
Experimental: FIGS. 15A-D. PIPs inhibit proliferation of glioma cells. (FIGS. 15A-B) T98G, LN229 and U251 glioma cells were treated with vehicle or varying concentration of PIP1 or PIP3, and proliferation was measured by using the MTT assay. (FIGS. 15C-D) Patient-derived primary GBM cells were treated with PIP1 or PIP3 and proliferation was measured using the MTT assay. Cell proliferation rates were measured by using MTT Cell Viability Assay in 96-well plates. Model cells were seeded in 96-well plates (1×10^3 cells/well) in DMEM or RPMI medium containing 10% serum. After an overnight incubation, cells were treated with varying concentrations of the peptides for 3-7 days and growth inhibition was determined by using traditional MTT assay (Sigma) following manufacturer's instructions.

Sequence: GRKKRRQRRRGGMVEFRWSCPGRRKAKA [PIP1]
- efficiency at inhibiting proliferation, PIP1 compared with PIP2 (ZRPELP1 cells): more efficient at inhibiting proliferation than PIP2
- PELP1-mediated breast cancer cell proliferation (ZRPELP1 cells; peptide every 3 days, absorbance at 7 days): significantly inhibit PELP1-mediated proliferation
- expression of G9a target genes Pecam1, Serac1, Rb1 and Bmi1 [1]: decrease in the expression G9a upregulated target genes
- proliferation by MTT assay [2]: significant decrease
- concentration of potent activity on glioma proliferation [3]: 50 µM
- proliferation of glioma cell lines and primary GBM cells ([3]; varying concentration): significantly reduced their proliferation in a dose-dependent manner
